Values of other authors, collected in patent US20110104273A1, “GASTRIC RETENTIVE PHARMACEUTICAL COMPOSITIONS FOR IMMEDIATE AND EXTENDED RELEASE OF PHENYLEPHRINE” (DEPOMED, INC., priority 2009, published 2011).
Structures can show the parent of a compound that is named as a salt. Where two headings read alike, the source gives them in different places.

What was measured:
[1] = not given; remark: listed apart in the source

Row | SMILES | solubility in water | solubility in water (hydrochloride) | absorption from the gut ([1]; oral) | bioavailability ([1]; oral) | systemic bioavailability ([1]; oral administration) | fraction of oral dose excreted unchanged in the urine ([1]; oral dose) | threshold dosage for any effects on the cardiovascular system (cardiovascular system; administered orally in man) | effects on the cardiovascular system (cardiovascular system; oral over-the-counter (OTC) doses)
1 | CNC[C@H](O)c1cccc(O)c1 [Phenylephrine HCl] | freely soluble | – | – | – | – | – | – | –
2 | CNC[C@H](O)c1cccc(O)c1 [Phenylephrine, (R)-3-[-1-hydroxy-2-(methylamino)ethyl]phenol alcohol hydrochloride] | – | highly soluble | well absorbed | up to 38% | around 40% | about 3% | about 50 mg | minimal effects
